The values that follow are results of earlier work, collected in patent US20100056546A1, “SULFONYLUREA INHIBITORS OF ATP-SENSITIVE POTASSIUM CHANNELS” (Auspex Pharmaceuticals, Inc., priority 2008, published 2010).

For the data set the following is noted: compared with glipizide; Ambrogi et al. 1972.

With `Cc1cnc(C(=O)NCCc2ccc(S(=O)(=O)NC(=O)N[C@H]3CCC[C@@H](O)C3)cc2)cn1` (relative stereo) [cis-3-hydroxy-glipizide], the “activity relative to the parent compound” value was “significantly less active”.
On to `Cc1cnc(C(=O)NCCc2ccc(S(=O)(=O)NC(=O)N[C@H]3CC[C@H](O)CC3)cc2)cn1` [trans-4-hydroxy-glipizide], for which the “activity relative to the parent compound” value was “significantly less active”.
